Relative viability data for five cell lines are collected here from the supplement of paper PMC10307832.

Holding throughout (assay): relative viability (nuclei count vs DMSO), 5 days (fraction); higher = more cells survive
Compound in the assay “Metformin + AZD7762”: CN(C)C(=N)NC(=N)N [Metformin] + NC(=O)Nc1cc(-c2cccc(F)c2)sc1C(=O)N[C@H]1CCCNC1 [AZD7762] (partner 0.2 µM)
In a few lines: (§1)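 Five library-drug doses in √10 steps were combined with a fixed anchor-drug dose, or a single drug was given alone, by pin tool to lung cancer cell lines in 1536-well plates the day after seeding. Nuclei were stained and counted after 5 days. Relative viability is the nuclei count in treated wells over that in vehicle wells, taken as the median of duplicate plates.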

Compound in the assay “Apatinib + Alpelisib”: N#CC1(c2ccc(NC(=O)c3cccnc3NCc3ccncc3)cc2)CCCC1 [Apatinib] + Cc1nc(NC(=O)N2CCC[C@H]2C(N)=O)sc1-c1ccnc(C(C)(C)C(F)(F)F)c1 [Alpelisib] (partner 2 µM)
The method in brief: as §1

Compound in the assay “Metformin + OSI-027”: CN(C)C(=N)NC(=N)N [Metformin] + COc1cccc2cc(-c3nc([C@H]4CC[C@H](C(=O)O)CC4)n4ncnc(N)c34)[nH]c12 [OSI-027] (partner 0.5 µM)
The method in brief: as §1

Compound in the assay “Metformin + Tozasertib”: CN(C)C(=N)NC(=N)N [Metformin] + Cc1cc(Nc2cc(N3CCN(C)CC3)nc(Sc3ccc(NC(=O)C4CC4)cc3)n2)n[nH]1 [Tozasertib] (partner 0.1 µM)
In a few lines:
as §1

As to NCI-H358, the relative viability in the assay with Metformin + AZD7762 (first compound 10 µM) came to 0.619; in the assay with Metformin + AZD7762 (first compound 31.62 µM), 0.449; with Metformin + AZD7762 (first compound 100 µM) it was 0.461; in the assay with Metformin + AZD7762 (first compound 316.23 µM) it was 0.519; in the assay with Metformin + AZD7762 (first compound 1000 µM), 0.532; in the assay with Apatinib + Alpelisib (first compound 0.08 µM), 0.87. The relative viability is 0.914 with Apatinib + Alpelisib (first compound 0.253 µM); 0.831 with Apatinib + Alpelisib (first compound 0.8 µM); 0.882 with Apatinib + Alpelisib (first compound 2.53 µM); 0.781 with Apatinib + Alpelisib (first compound 8 µM); 0.737 in the assay with Metformin + OSI-027 (first compound 10 µM); 0.879 with Metformin + OSI-027 (first compound 31.62 µM). Also, the relative viability with Metformin + OSI-027 (first compound 100 µM) was 0.801; in the assay with Metformin + OSI-027 (first compound 316.23 µM), 0.716; with Metformin + OSI-027 (first compound 1000 µM), 0.749; in the assay with Metformin + Tozasertib (first compound 10 µM), 0.0917; with Metformin + Tozasertib (first compound 31.62 µM), 0.104; with Metformin + Tozasertib (first compound 100 µM) it was 0.101. Moreover, the figures for the relative viability in the assay with Metformin + Tozasertib (first compound 316.23 µM) and with Metformin + Tozasertib (first compound 1000 µM) were 0.0897 and 0.0865, respectively.

As to LCLC-97TM1, the relative viability in the assay with Metformin + AZD7762 (first compound 10 µM) is 0.205; with Metformin + AZD7762 (first compound 31.62 µM), 0.244; with Metformin + AZD7762 (first compound 100 µM), 0.205; with Metformin + AZD7762 (first compound 316.23 µM) it was 0.27; with Metformin + AZD7762 (first compound 1000 µM) it was 0.306; in the assay with Apatinib + Alpelisib (first compound 0.08 µM), 0.281. For the same cell line, the relative viability was 0.21 with Apatinib + Alpelisib (first compound 0.253 µM); 0.256 in the assay with Apatinib + Alpelisib (first compound 0.8 µM); 0.206 with Apatinib + Alpelisib (first compound 2.53 µM); 0.154 in the assay with Apatinib + Alpelisib (first compound 8 µM); 0.647 in the assay with Metformin + OSI-027 (first compound 10 µM); 0.58 in the assay with Metformin + OSI-027 (first compound 31.62 µM). For the same cell line, the relative viability in the assay with Metformin + OSI-027 (first compound 100 µM) turned out to be 0.537; with Metformin + OSI-027 (first compound 316.23 µM), 0.487; in the assay with Metformin + OSI-027 (first compound 1000 µM) it was 0.711; in the assay with Metformin + Tozasertib (first compound 10 µM) it was 0.18; in the assay with Metformin + Tozasertib (first compound 31.62 µM), 0.212; in the assay with Metformin + Tozasertib (first compound 100 µM), 0.212. For the same cell line, the results for the relative viability with Metformin + Tozasertib (first compound 316.23 µM) and with Metformin + Tozasertib (first compound 1000 µM) were 0.241 and 0.231, respectively.

As for NCI-H1944, the relative viability with Metformin + AZD7762 (first compound 10 µM) was determined as 0.406; with Metformin + AZD7762 (first compound 31.62 µM), 0.586; in the assay with Metformin + AZD7762 (first compound 100 µM), 0.48; in the assay with Metformin + AZD7762 (first compound 316.23 µM) it was 0.626; with Metformin + AZD7762 (first compound 1000 µM), 0.527; in the assay with Apatinib + Alpelisib (first compound 0.08 µM), 0.868. Moreover, the relative viability with Apatinib + Alpelisib (first compound 0.253 µM) worked out at 0.905; with Apatinib + Alpelisib (first compound 0.8 µM), 0.74; with Apatinib + Alpelisib (first compound 2.53 µM), 0.798; with Apatinib + Alpelisib (first compound 8 µM), 0.866; with Metformin + OSI-027 (first compound 10 µM), 0.428; in the assay with Metformin + OSI-027 (first compound 31.62 µM), 0.401. For the same cell line, the relative viability came out at 0.402 with Metformin + OSI-027 (first compound 100 µM); 0.425 in the assay with Metformin + OSI-027 (first compound 316.23 µM); 0.455 with Metformin + OSI-027 (first compound 1000 µM); 0.314 in the assay with Metformin + Tozasertib (first compound 10 µM); 0.279 with Metformin + Tozasertib (first compound 31.62 µM); 0.288 in the assay with Metformin + Tozasertib (first compound 100 µM). In addition, the relative viability with Metformin + Tozasertib (first compound 316.23 µM) stood at 0.245; with Metformin + Tozasertib (first compound 1000 µM), 0.297.

Take 201T: the relative viability in the assay with Metformin + AZD7762 (first compound 31.62 µM) was 0.5; in the assay with Metformin + AZD7762 (first compound 100 µM), 0.581; with Metformin + AZD7762 (first compound 316.23 µM), 0.476; with Metformin + AZD7762 (first compound 1000 µM), 0.609; with Apatinib + Alpelisib (first compound 0.08 µM), 1.01; with Apatinib + Alpelisib (first compound 0.253 µM) it was 1.08. The relative viability in the assay with Apatinib + Alpelisib (first compound 0.8 µM) is 1.03; with Apatinib + Alpelisib (first compound 2.53 µM) it was 1.09; in the assay with Apatinib + Alpelisib (first compound 8 µM), 1.05; with Metformin + OSI-027 (first compound 31.62 µM), 0.955; with Metformin + OSI-027 (first compound 100 µM), 0.875; in the assay with Metformin + OSI-027 (first compound 316.23 µM), 0.881. In addition, the relative viability with Metformin + OSI-027 (first compound 1000 µM) amounted to 0.517; with Metformin + Tozasertib (first compound 31.62 µM), 0.93; with Metformin + Tozasertib (first compound 100 µM), 1.04; with Metformin + Tozasertib (first compound 316.23 µM), 0.857; with Metformin + Tozasertib (first compound 1000 µM), 0.92.

Take CAL-12T: the relative viability with Metformin + AZD7762 (first compound 10 µM) was 0.659; with Metformin + AZD7762 (first compound 31.62 µM) it was 0.718; with Metformin + AZD7762 (first compound 100 µM), 0.638; with Metformin + AZD7762 (first compound 316.23 µM) it was 0.646; in the assay with Metformin + AZD7762 (first compound 1000 µM), 0.659; in the assay with Apatinib + Alpelisib (first compound 0.08 µM) it was 1.11. Besides, the relative viability in the assay with Apatinib + Alpelisib (first compound 0.253 µM) stood at 1.13; with Apatinib + Alpelisib (first compound 0.8 µM), 1.22; in the assay with Apatinib + Alpelisib (first compound 2.53 µM), 1.04; with Apatinib + Alpelisib (first compound 8 µM), 1.04; with Metformin + OSI-027 (first compound 10 µM), 0.678; in the assay with Metformin + OSI-027 (first compound 31.62 µM) it was 0.94. For the same cell line, the relative viability turned out to be 0.581 with Metformin + OSI-027 (first compound 100 µM); 0.39 in the assay with Metformin + OSI-027 (first compound 316.23 µM); 0.605 with Metformin + OSI-027 (first compound 1000 µM); 0.437 with Metformin + Tozasertib (first compound 10 µM); 0.388 with Metformin + Tozasertib (first compound 31.62 µM); 0.408 in the assay with Metformin + Tozasertib (first compound 100 µM). Further, the relative viability with Metformin + Tozasertib (first compound 316.23 µM) came to 0.363; with Metformin + Tozasertib (first compound 1000 µM) it was 0.35.
